Data set [1] has as its system Mycobacterium tuberculosis H37Rv (ATCC: 25177). Kind of data set: Resazurin Microplate Assay (REMA), MIC against H37Rv strain. The format is cell-based. To be noted: 192 h, read-out: Anti-tubercular activity against Mycobacterium tuberculosis (μg/mL) H37Rv (MIC).

≈ marks a conversion by molar mass, not a printed value.

In the case of `Cc1nc(-c2ccc(OCC(C)C)c(C#N)c2)sc1C(=O)N/N=C/c1ccc([N+](=O)[O-])o1`, the melting point (in general, the temperature of the solid-liquid transition) was 228 to 230 °C.
Take `Cc1nc(-c2ccc(OCC(C)C)c(C#N)c2)sc1C(=O)N/N=C/c1ccc(F)c(Oc2ccccc2)c1` [KNV-TZL1, (E)-2-(3-Cyano-4-isobutoxyphenyl)-N-(4-fluoro-3-phenoxybenzylidene)-4-methylthiazole-5-carbohydrazide]: the melting point lay within 138 to 140 °C. Further, in data set [1], the MIC was determined as 8 µg/mL (≈ 15.1 µM).
The like results for `COc1cc(/C=N/NC(=O)c2sc(-c3ccc(OCC(C)C)c(C#N)c3)nc2C)ccc1O` [KNV-TZL2, (E)-2-(3-Cyano-4-isobutoxyphenyl)-N-(4-hydroxy-3-methoxybenzylidene)-4-methylthiazole-5-carbohydrazide] were, in that order, 230 to 232 °C and 16 µg/mL (≈ 34.4 µM).

(Values after patent US12145915B1 (priority 2023, dated 2024).)
